Results on four compounds are retold here after article PMC5033714 (Neuron, 2016).

In data set [1] the target is GluN1-CC/2A receptors (GluN1-N499C+Q686C) (Rattus norvegicus, UniProt P35439+Q00959, N499C/Q686C). The format is cell-based. The following applies: 100 μM glutamate alone; glycine 300 μM, 7CKA 10 μM, TCN-201 5 μM, MPX-004 10 μM, MPX-007 30 μM.
The target in the next data set is GluN1/2A receptors (Rattus norvegicus, UniProt P35439+Q00959). The format is cell-based. The following applies: for extent of inhibition of GluN1/2A / IC50: activated by 100 μM glutamate plus 3 μM glycine; for IC50: read-out: IC50 for inhibition of GluN1/2A; for increase of IC50 in 30 μM glycine compared to 3 μM glycine: 100 μM glutamate.
Another data set concerns GluN1/2B-D receptors. The format is cell-based.
Data set [2] deals with wild type GluN1/2A receptors (Rattus norvegicus, UniProt P35439+Q00959). The format is cell-based.
The target in data set [3] is GluN1/2A receptors with GluN2A-V783A (Rattus norvegicus, UniProt P35439+Q00959, V783A). Nature of the data set: Glycine concentration-response and Schild analysis, GluN2A-V783A. The format is cell-based.
Data set [4] concerns the target GluN1/2A receptors with GluN2A-V783F (Rattus norvegicus, UniProt P35439+Q00959, V783F). Nature of the data set: Glycine concentration-response and Schild analysis, GluN2A-V783F. The format is cell-based. To be noted: read-out: binding affinity KB.
Data set [5] has as its target GluN1/2A receptors with GluN1-F754L (Rattus norvegicus, UniProt P35439+Q00959, F754L). Nature of the data set: Glycine concentration-response and Schild analysis, GluN1-F754L. The format is cell-based.
In data set [6] the target is GluN1/2A receptors with GluN1-F754V (Rattus norvegicus, UniProt P35439+Q00959, F754V). The data set is described as follows: Glycine concentration-response and Schild analysis, GluN1-F754V. The format is cell-based.
The target of data set [7] is GluN1/2A receptors with GluN1-Y535F (Rattus norvegicus, UniProt P35439+Q00959, Y535F). Nature of the data set: Schild analysis of TCN-201, GluN1-Y535F. The format is cell-based.
Data set [8] has as its target GluN1/2A receptors with GluN1-Y535L (Rattus norvegicus, UniProt P35439+Q00959, Y535L). Nature of the data set: Schild analysis of TCN-201, GluN1-Y535L. The format is cell-based.
The target in data set [9] is GluN1/2A receptors with GluN1-R755A (Rattus norvegicus, UniProt P35439+Q00959, R755A). The data set is described as follows: TCN-201 inhibition, GluN1-R755A. The format is cell-based.
Data set [10] can be described thus: Solubility-limited maximal concentration in recording solution. The format is physicochemical. The following applies: extracellular recording solution pH 7.4, DMSO < 0.3%.
Another data set concerns the target GluN1/2B receptors (Rattus norvegicus, UniProt P35439+Q00960). The format is cell-based.

Chain of GluN1/2A receptors with GluN1-F754V (Q00959 20-1464 limits assumed, other chains not shown): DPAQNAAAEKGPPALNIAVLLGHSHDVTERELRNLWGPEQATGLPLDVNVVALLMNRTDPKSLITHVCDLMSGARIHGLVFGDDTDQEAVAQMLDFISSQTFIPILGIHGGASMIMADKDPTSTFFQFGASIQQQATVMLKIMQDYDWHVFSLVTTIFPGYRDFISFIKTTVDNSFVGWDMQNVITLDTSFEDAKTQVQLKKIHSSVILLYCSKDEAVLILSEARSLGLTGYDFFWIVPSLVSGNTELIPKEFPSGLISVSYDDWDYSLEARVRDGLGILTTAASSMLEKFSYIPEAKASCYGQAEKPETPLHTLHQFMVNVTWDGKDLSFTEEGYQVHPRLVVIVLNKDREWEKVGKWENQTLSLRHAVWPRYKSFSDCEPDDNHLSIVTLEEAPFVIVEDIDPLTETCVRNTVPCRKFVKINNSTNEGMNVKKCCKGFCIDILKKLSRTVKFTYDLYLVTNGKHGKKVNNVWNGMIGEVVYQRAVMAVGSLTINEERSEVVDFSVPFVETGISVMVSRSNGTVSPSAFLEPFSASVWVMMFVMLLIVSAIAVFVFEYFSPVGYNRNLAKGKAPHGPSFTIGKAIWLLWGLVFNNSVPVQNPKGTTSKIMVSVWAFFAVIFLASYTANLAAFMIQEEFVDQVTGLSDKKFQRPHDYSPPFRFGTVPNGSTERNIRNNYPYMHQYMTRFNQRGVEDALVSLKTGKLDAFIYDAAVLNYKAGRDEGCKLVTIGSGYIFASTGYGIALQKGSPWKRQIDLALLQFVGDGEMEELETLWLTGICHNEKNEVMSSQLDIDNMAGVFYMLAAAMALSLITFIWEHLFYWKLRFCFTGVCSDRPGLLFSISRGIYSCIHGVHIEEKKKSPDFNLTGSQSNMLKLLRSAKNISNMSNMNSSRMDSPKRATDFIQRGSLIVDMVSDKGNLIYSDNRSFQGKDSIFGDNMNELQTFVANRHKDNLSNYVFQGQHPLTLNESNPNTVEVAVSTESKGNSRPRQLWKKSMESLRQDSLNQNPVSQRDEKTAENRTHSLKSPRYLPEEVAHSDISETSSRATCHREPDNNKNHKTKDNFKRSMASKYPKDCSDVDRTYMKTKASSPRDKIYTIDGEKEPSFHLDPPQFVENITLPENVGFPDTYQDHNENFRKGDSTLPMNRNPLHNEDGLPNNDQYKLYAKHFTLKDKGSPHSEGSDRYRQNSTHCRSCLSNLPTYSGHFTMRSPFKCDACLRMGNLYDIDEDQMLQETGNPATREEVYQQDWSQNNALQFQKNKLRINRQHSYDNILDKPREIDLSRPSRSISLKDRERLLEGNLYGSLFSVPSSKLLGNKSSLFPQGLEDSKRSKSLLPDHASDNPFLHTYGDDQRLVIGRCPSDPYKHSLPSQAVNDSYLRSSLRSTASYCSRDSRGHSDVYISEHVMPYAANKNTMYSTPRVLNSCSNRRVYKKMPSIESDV
Chain of GluN1/2A receptors (Q00959 20-1464 limits assumed, other chains not shown): as above
Chain of GluN1/2B receptors (Q00960 27-1482, other chains not shown): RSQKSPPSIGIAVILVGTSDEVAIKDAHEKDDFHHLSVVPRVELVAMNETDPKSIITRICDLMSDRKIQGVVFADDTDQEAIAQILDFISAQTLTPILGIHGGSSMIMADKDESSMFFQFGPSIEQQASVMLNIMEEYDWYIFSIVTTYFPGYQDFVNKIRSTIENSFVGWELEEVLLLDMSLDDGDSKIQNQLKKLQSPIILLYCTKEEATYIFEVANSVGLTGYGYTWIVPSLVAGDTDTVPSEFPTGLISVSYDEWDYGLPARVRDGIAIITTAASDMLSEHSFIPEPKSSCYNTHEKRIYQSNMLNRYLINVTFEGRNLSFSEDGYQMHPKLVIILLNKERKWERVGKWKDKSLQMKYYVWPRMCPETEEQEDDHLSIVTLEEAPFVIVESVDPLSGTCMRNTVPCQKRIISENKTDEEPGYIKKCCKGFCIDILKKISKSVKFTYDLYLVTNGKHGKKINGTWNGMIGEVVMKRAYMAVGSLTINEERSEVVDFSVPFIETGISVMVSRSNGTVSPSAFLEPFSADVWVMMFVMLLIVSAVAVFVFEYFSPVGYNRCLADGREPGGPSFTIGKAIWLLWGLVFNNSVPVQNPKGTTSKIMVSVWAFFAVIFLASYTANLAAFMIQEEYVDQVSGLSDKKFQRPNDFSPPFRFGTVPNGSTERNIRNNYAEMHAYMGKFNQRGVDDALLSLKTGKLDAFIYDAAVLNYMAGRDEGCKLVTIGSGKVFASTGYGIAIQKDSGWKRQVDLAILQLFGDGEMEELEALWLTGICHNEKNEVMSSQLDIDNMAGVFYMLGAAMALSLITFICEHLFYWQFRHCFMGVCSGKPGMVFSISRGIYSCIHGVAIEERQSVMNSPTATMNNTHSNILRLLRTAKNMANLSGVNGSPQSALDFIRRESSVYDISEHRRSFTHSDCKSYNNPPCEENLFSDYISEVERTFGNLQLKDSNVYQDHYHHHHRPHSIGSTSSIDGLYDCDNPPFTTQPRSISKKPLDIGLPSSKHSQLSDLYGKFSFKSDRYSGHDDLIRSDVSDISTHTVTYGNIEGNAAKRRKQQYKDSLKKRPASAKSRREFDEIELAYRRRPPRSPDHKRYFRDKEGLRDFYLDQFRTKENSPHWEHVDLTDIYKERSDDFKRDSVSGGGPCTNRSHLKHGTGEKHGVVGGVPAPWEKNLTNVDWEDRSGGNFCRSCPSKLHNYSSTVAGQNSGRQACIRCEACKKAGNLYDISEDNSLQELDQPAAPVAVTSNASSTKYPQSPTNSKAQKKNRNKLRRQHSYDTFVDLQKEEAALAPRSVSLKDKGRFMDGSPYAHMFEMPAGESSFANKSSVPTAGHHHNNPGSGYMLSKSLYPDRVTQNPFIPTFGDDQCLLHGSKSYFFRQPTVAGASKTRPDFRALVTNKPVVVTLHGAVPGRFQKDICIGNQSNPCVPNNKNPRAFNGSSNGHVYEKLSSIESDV

With `O=C(O)c1cc(O)c2ccc(Cl)cc2n1` [7CKA], the “effect on glutamate-activated responses from crosslinked GluN1-CC/2A” value in data set [1] is on record as “not sensitive”.
Consider `O=C(NNC(=O)c1ccc(CNS(=O)(=O)c2ccc(F)c(Cl)c2)cc1)c1ccccc1` [TCN-201], for which, at GluN1/2A receptors (GluN1/2A, 300 μM glycine), the “inhibition in 300 μM glycine” value was “markedly diminished”. The “extent of inhibition of GluN1/2A” value on GluN1/2A receptors is “nearly complete inhibition”. Besides, on GluN1/2A receptors, the IC50 is around 0.2 µM. Moreover, in the data set with GluN1/2B-D receptors, the “selectivity for GluN1/2A over GluN1/2B-D” value is reported as “strict selectivity”. The “maximal increase of glycine EC50 (1/α)” value is 143 fold in data set [2] and 12 fold in data set [6]. For the same compound, the figures for the “allosteric constant α” value in data set [2] (Schild analysis) and in data set [3] were 0.007 and 0.001, respectively. The Kb in data set [4] was 0.186 µM; in [6] (read-out: binding affinity KB) it was 0.131 µM. Further, the allosteric constant in [5] was 0.018; in data set [6], 0.086; in [8], 0.016. Moreover, the “binding affinity KB compared to wild type” value is listed as “little to no change” in [5] and “virtually unchanged” in data set [7]. Besides, in data set [7], the “allosteric constant compared to wild type” value is “virtually unchanged”. The “inhibition” value in [9] is given as “abolished”. Further, in data set [10], the “maximal concentration used, limited by compound solubility” value (“maximal concentration used, limited” below) turned out to be 5 µM.
As for `Cc1ncc(CNC(=O)c2cnc(CNS(=O)(=O)c3ccc(F)c(Cl)c3)cn2)s1` [MPX-004], the “increase of IC50 in 30 μM glycine compared to 3 μM glycine” value at GluN1/2A receptors (GluN1/2A) worked out at 3.8 fold. At GluN1/2A receptors (GluN1/2A, 300 μM glycine), the maximal inhibition is reported as 71% ± 4%. Moreover, at GluN1/2A receptors, the “extent of inhibition of GluN1/2A” value was “nearly complete inhibition” and the IC50 is around 0.2 µM. Also, in the data set on GluN1/2B-D receptors, the “selectivity for GluN1/2A over GluN1/2B-D” value is listed as “strict selectivity”. Moreover, the “effect on glutamate-activated responses from crosslinked GluN1-CC/2A” value in [1] is “significant potentiation”. For the same compound, the “maximal concentration used, limited” value in data set [10] is 10 µM.
`Cc1ncc(CNC(=O)c2cnc(CNS(=O)(=O)c3ccc(F)c(F)c3)c(C)n2)s1` [MPX-007]: the “increase of IC50 in 30 μM glycine compared to 3 μM glycine” value on GluN1/2A receptors (GluN1/2A) was 3.2 fold. The maximal inhibition at GluN1/2A receptors (GluN1/2A, 300 μM glycine) is recorded as 95% ± 1%. Moreover, at GluN1/2A receptors, the “extent of inhibition of GluN1/2A” value was “nearly complete inhibition” and the IC50 is around 0.2 µM. Also, the “glycine-sensitivity of inhibition of GluN1/2B” value on GluN1/2B receptors was “sensitive to the glycine concentration”. In addition, at GluN1/2B receptors (30 μM compound, 3 μM glycine, n = 6), the “inhibition of GluN1/2B receptors” value is 48% ± 3%. Besides, the “concentrations at which GluN1/2B-D receptors are inhibited” value in the data set on GluN1/2B-D receptors lay in the range of 10 to 30 µM. Also, the “maximal concentration used, limited” value in data set [10] was determined as 30 µM.
